How the values were obtained:
[1] = tested on: HepG2; experiment: Cell cytotoxicity assay, HEPG2; assay type: cell-based; settings: HepG2 cells, 5 days at 37° C., XTT dye
Procedure: (§1) Cells were seeded 24 hours prior to compound addition. Each test compound (serially diluted from 100 μM) was added to Huh7 (1.5×10^4 cells/well) or HepG2 (1.5×10^4 cells/well), and allowed to incubate for 5 days at 37° C. A medium only control was used to determine the minimum absorbance value and an untreated cell value. At the end of the growth period, XTT dye from Polysciences Europe GmbH was added to each well. The absorbance at 450 nm with a reference wavelength of 600 nm was read with a Sunrise (Tecan) using the medium only control wells as blanks. The 50% inhibition value (CC50) was determined by comparing the degree of inhibition (compared to cell control) plotted against compound concentration. Results from the dilution series were fitted to a sigmoidal dose-response curve.
(§2) Compounds of the invention were evaluated in these assays to assess the stability in human intestinal S9 fraction (HIS9) and human liver S9 fraction (HLS9), and for Cell Cytotoxicity in HUH7, HEP3B and HEPG2 cells.

[2] = Stability in human liver S9 fraction (HLS9); assay type: in vitro ADME; settings: human liver S9 0.4 mg protein/mL, 5 μM test compound, 37° C.; for microsomal CLint at 5 μM: liver S9 fraction, pH 7.4
Procedure: (§3) Stability in Human Intestinal S9 Fraction (HIS9) and in Human Liver S9 Fraction (HLS9),
(§4) Stock solutions of each test compound (10 mM) were prepared in DMSO and stored at −20° C. Prior to the start of the experiment, the test compounds were diluted to 500 μM in 50% acetonitrile in water. The reaction mixture was prepared in a total volume of 250 μL containing 5 mM MgC2, 1 mM NADPH and 5 μM test compound in 50 mM potassium phosphate buffer (pH 7.4). The reaction was initiated by addition of human liver or intestinal S9 fraction with a final concentration of 0.4 mg protein/mL (Xeno Tech). The reaction mixture was incubated on an orbital shaker at 37° C. At the desired time points (0, 10, 30 and 60 minutes) aliquots of 50 μL were taken and the reaction was stopped by mixing with 150 μL acetonitrile containing internal standard. Standard solutions of each test compound were prepared from the 500 μM solution by diluting the solution to a final concentration of 5 μM in boiled human S9 (0.4 mg protein/mL), 5 mM MgCl2 and 50 mM potassium phosphate buffer (pH 7.4). The standards and samples were kept on ice for 30 min then centrifuged at 3 000 g for 20 minutes at 10° C., there after 10 μL of supernatant was mixed with 200 μL 50% acetonitrile in water. 0.5 μM of each test compound in 50% acetonitrile in water was injected into the LC/MS-MS to determine the daughter ion, declustring potential (DP), collision energy (CE) and collision cell exit potential (CXP) in order to develop a LC/MS-MS method. The compounds were separated using a C18 column with a QTRAP5500 system. The mobile phase consisted of solvent A (98% water, 2% acetonitrile, 0.1% acetic acid or 10 mM ammonium acetate) and solvent B (80% acetonitrile, 20% water, 0.1% acetic acid or 10 mM ammonium acetate). Elution of the compounds was performed by using a gradient of solvent B from 0% to 100%. 5 μL of standard points and samples were injected for analysis with QTRAP5500.
(§5) The amount of parent compound was determined on the basis of the peak area for each time point compared to standard which was set to 5 μM. Intrinsic clearance (CLint) and half-life (t1/2) were determined from the disappearance curves of the test compound using Excel software.

[3] = Stability in human intestinal S9 fraction (HIS9); assay type: in vitro ADME; settings: human intestinal S9 0.4 mg protein/mL, 5 μM test compound, 37° C.; for microsomal CLint at 5 μM: intestinal S9 fraction, pH 7.4
Procedure: as §3, §4, §5

[4] = tested on: Huh7; experiment: Cell cytotoxicity assay, HUH7; assay type: cell-based; settings: Huh7 cells, 5 days at 37° C., XTT dye
Procedure: as §1, §2

| Structure (SMILES) | CLint Liver S9 [2] | CLint Intestinal S9 [3] | CC50 [1] | CC50 [4] | microsomal CLint at 5 μM [2] | microsomal CLint at 5 μM [3] |
| --- | --- | --- | --- | --- | --- | --- |
| CCC[C@@H](C)OC(=O)[C@H](C)NP(=O)(OC[C@H]1OC[C@@H](n2ccc(N)nc2=O)O1)Oc1ccccc1 (single isomer, unassigned) [30 dia-2] |  |  |  |  | 120 µL/min/mg | 11 µL/min/mg |
| CC[C@H](C)OC(=O)[C@H](C)NP(=O)(OC[C@H]1OC[C@@H](n2ccc(N)nc2=O)O1)Oc1ccccc1 (single isomer, unassigned) [31 dia-2] |  | 6 µL/min/mg |  |  | 8 µL/min/mg |  |
| CC[C@@H](C)OC(=O)[C@H](C)NP(=O)(OC[C@H]1OC[C@@H](n2cc(F)c(N)nc2=O)O1)Oc1ccccc1 (single isomer, unassigned) [32 dia-2] |  |  |  |  | 27 µL/min/mg | 8 µL/min/mg |
| C[C@H](NP(=O)(OC[C@H]1OC[C@@H](n2ccc(N)nc2=O)O1)Oc1cccc2ccccc12)C(=O)OC1CCCCC1 (single isomer, unassigned; dia-1) [6 dia-1] | 91 µL/min/mg | 36 µL/min/mg | 92 nM | 258 nM |  |  |
| Nc1ccn([C@@H]2CO[C@H](COP(=O)(N[C@@H](Cc3ccccc3)C(=O)OC3CCCCC3)Oc3ccc(Br)cc3)O2)c(=O)n1 (single isomer, unassigned; dia-1) [7 dia-1] | 148 µL/min/mg | 147 µL/min/mg | 240 nM | 1020 nM |  |  |
| CCCC(CCC)COC(=O)[C@H](C)NP(=O)(OC[C@H]1OC[C@@H](n2ccc(N)nc2=O)O1)Oc1ccccc1 (single isomer, unassigned; dia-1) [8 dia-1] |  |  | 7 nM | 123 nM |  |  |
| C[C@H](NP(=O)(OC[C@H]1OC[C@@H](n2ccc(N)nc2=O)O1)Oc1cccc2ccccc12)C(=O)OCc1ccccc1 (single isomer, unassigned; dia-1) [9 dia-1] | 133 µL/min/mg | 171 µL/min/mg | 23 nM | 164 nM |  |  |
| Nc1ccn([C@@H]2CO[C@H](COP(=O)(N[C@@H](Cc3ccccc3)C(=O)OCc3ccccc3)Oc3cccc(C4CC4)c3)O2)c(=O)n1 (single isomer, unassigned; dia-1) [12 dia-1] | 182 µL/min/mg | 300 µL/min/mg | 481 nM | 4330 nM |  |  |
| COC(=O)[C@H](C)NP(=O)(OC[C@H]1OC[C@@H](n2ccc(N)nc2=O)O1)Oc1ccc(Br)cc1 (single isomer, unassigned; dia-1) [27 dia-1] | 38 µL/min/mg | 11 µL/min/mg | 151 nM | 1440 nM |  |  |
| C[C@H](NP(=O)(OC[C@H]1OC[C@@H](n2ccc(N)nc2=O)O1)Oc1cccc2ccccc12)C(=O)OC1CCCCC1 (single isomer, unassigned; dia-2) [6 dia-2] | 61 µL/min/mg | 25 µL/min/mg | 48 nM | 316 nM |  |  |
| Nc1ccn([C@@H]2CO[C@H](COP(=O)(N[C@@H](Cc3ccccc3)C(=O)OC3CCCCC3)Oc3ccc(Br)cc3)O2)c(=O)n1 (single isomer, unassigned; dia-2) [7 dia-2] | 60 µL/min/mg | 27 µL/min/mg | 58 nM | 134 nM |  |  |
| C[C@H](NP(=O)(OC[C@H]1OC[C@@H](n2ccc(N)nc2=O)O1)Oc1cccc2ccccc12)C(=O)OCc1ccccc1 (single isomer, unassigned; dia-2) [9 dia-2] | 94 µL/min/mg | 127 µL/min/mg | 16 nM | 158 nM |  |  |

Now from value to compound, other results behind:

| CLint Liver S9 [2] | CLint Intestinal S9 [3] | Structure (SMILES) | CC50 [1] | CC50 [4] | microsomal CLint at 5 μM [2] | microsomal CLint at 5 μM [3] |
| --- | --- | --- | --- | --- | --- | --- |
| 85 µL/min/mg | 27 µL/min/mg | CCCC(CCC)COC(=O)C(Cc1ccccc1)NP(=O)(OCC1OCC(n2ccc(N)nc2=O)O1)Oc1ccccc1 (mixture of isomers) [13 diamix 4:1] | 163 nM | 663 nM |  |  |
| 32 µL/min/mg | 21 µL/min/mg | CC(C)OC(=O)[C@H](C)NP(=O)(OC[C@H]1OC[C@@H](n2ccc(N)nc2=O)O1)Oc1cccc2ccccc12 (single isomer, unassigned; dia-1) [5 dia-1] | 107 nM | 465 nM |  |  |
| 88 µL/min/mg | 30 µL/min/mg | CCCC(CCC)COC(=O)[C@H](C)NP(=O)(OC[C@H]1OC[C@@H](n2ccc(N)nc2=O)O1)Oc1cccc2ccccc12 (single isomer, unassigned; dia-1) [14 dia-1] | 16 nM | 216 nM |  |  |
| 167 µL/min/mg | 87 µL/min/mg | CCC(CC)COC(=O)[C@H](C)NP(=O)(OC[C@H]1OC[C@@H](n2ccc(N)nc2=O)O1)Oc1ccccc1 (single isomer, unassigned; dia-1) [15 dia-1] | 37 nM | 25 nM |  |  |
| 6 µL/min/mg | 6 µL/min/mg | CC(C)OC(=O)[C@@H](C)NP(=O)(OC[C@H]1OC[C@@H](n2ccc(N)nc2=O)O1)Oc1ccccc1 (single isomer, unassigned; dia-1) [17 dia-1] | 50000 nM | 50000 nM |  |  |
| 19 µL/min/mg | 26 µL/min/mg | C[C@H](NP(=O)(OC[C@H]1OC[C@@H](n2ccc(N)nc2=O)O1)Oc1ccccc1)C(=O)OCc1ccccc1 (single isomer, unassigned; dia-1) [19 dia-1] | 18 nM | 91 nM |  |  |
| 45 µL/min/mg | 21 µL/min/mg | CCC[C@H](C)OC(=O)[C@H](C)NP(=O)(OC[C@H]1OC[C@@H](n2ccc(N)nc2=O)O1)Oc1ccccc1 (single isomer, unassigned; dia-1) [20 dia-1] | 74 nM | 216 nM |  |  |
| 61 µL/min/mg | 29 µL/min/mg | CCC(CC)OC(=O)[C@H](C)NP(=O)(OC[C@H]1OC[C@@H](n2ccc(N)nc2=O)O1)Oc1ccccc1 (single isomer, unassigned; dia-1) [21 dia-1] | 163 nM | 574 nM |  |  |
| 49 µL/min/mg | 52 µL/min/mg | C[C@H](NP(=O)(OC[C@H]1OC[C@@H](n2ccc(N)nc2=O)O1)Oc1cccc2ccccc12)C(=O)OC1CCCC1 (single isomer, unassigned; dia-1) [22 dia-1] | 12 nM | 33 nM |  |  |
| 180 µL/min/mg | 27 µL/min/mg | CC[C@@H](C)OC(=O)[C@H](C)NP(=O)(OC[C@H]1OC[C@@H](n2ccc(N)nc2=O)O1)Oc1cccc(C2CCC2)c1 (single isomer, unassigned; dia-1) [33 dia-1] |  |  |  |  |
| 31 µL/min/mg | 13 µL/min/mg | CC(C)OC(=O)[C@H](C)NP(=O)(OC[C@H]1OC[C@@H](n2ccc(N)nc2=O)O1)Oc1cccc2ccccc12 (single isomer, unassigned; dia-2) [5 dia-2] | 114 nM | 602 nM |  |  |
| 6 µL/min/mg |  | CC(C)OC(=O)[C@@H](C)NP(=O)(OC[C@H]1OC[C@@H](n2ccc(N)nc2=O)O1)Oc1ccccc1 (single isomer, unassigned; dia-2) [17 dia-2] |  | 50000 nM |  |  |
| 300 µL/min/mg | 20 µL/min/mg | CCCC(CCC)COC(=O)[C@H](C)NP(=O)(OC[C@H]1OC[C@@H](n2ccc(N)nc2=O)O1)Oc1ccc(Br)cc1 (single isomer, unassigned; dia-2) [23 dia-2] |  |  |  |  |
| 230 µL/min/mg | 75 µL/min/mg | CC[C@@H](C)OC(=O)[C@H](C)NP(=O)(OC[C@H]1OC[C@@H](n2ccc(N)nc2=O)O1)Oc1cccc(C2CCC2)c1 (single isomer, unassigned; dia-2) [33 dia-2] |  |  |  |  |

Reference: patent US11447511B2, “Dioxolane analogues of uridine for the treatment of cancer” (MEDIVIR AB, priority 2014, dated 2022)
